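Exposure lasted 48 hours, with cells grown in 96-well plates and compounds tested at five concentrations. GI50: concentration for 50% inhibition of growth.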 The source made the active and inactive calls. Rule as the data show it: active = GI50 up to about 1.1 µM and inactive = higher.
Tests used:
Assay in all cases: inhibition of tumour cell growth, NCI panel, 48 h
HL-60 = tested on: HL-60
Hs-578T = tested on: Hs-578T
HT-29 = tested on: HT-29
DU-145 = tested on: DU-145
HCT-116 = tested on: HCT-116
SNB-19 = tested on: SNB-19
NCI-H460 = tested on: NCI-H460
IGROV-1 = tested on: IGROV-1
SK-OV-3 = tested on: SK-OV-3
CCRF-CEM = tested on: CCRF-CEM
A549 = tested on: A549
SW-620 = tested on: SW-620
NCI-H522 = tested on: NCI-H522
NCI-H23 = tested on: NCI-H23
SK-MEL-5 = tested on: SK-MEL-5
UO-31 = tested on: UO-31
SF-268 = tested on: SF-268
T47D = tested on: T47D
EKVX = tested on: EKVX
Malme-3M = tested on: Malme-3M
CAKI-1 = tested on: CAKI-1
MDA-MB-435 = tested on: MDA-MB-435
OVCAR-8 = tested on: OVCAR-8
OVCAR-5 = tested on: OVCAR-5
MDA-N = tested on: MDA-N
PC-3 = tested on: PC-3
OVCAR-4 = tested on: OVCAR-4
K562 = tested on: K562
MOLT-4 = tested on: MOLT-4
SR = tested on: SR
OVCAR-3 = tested on: OVCAR-3
MCF7 = tested on: MCF7
NCI/ADR-RES = tested on: NCI/ADR-RES
U-251 = tested on: U-251
LOX IMVI = tested on: LOX IMVI
UACC-257 = tested on: UACC-257
MDA-MB-231 = tested on: MDA-MB-231
HOP-92 = tested on: HOP-92
M14 = tested on: M14
RXF 393 = tested on: RXF 393
SF-539 = tested on: SF-539
TK-10 = tested on: TK-10
786-0 = tested on: 786-0
A498 = tested on: A498
SF-295 = tested on: SF-295
HCT-15 = tested on: HCT-15
RPMI-8226 = tested on: RPMI-8226
SK-MEL-28 = tested on: SK-MEL-28
ACHN = tested on: ACHN
SK-MEL-2 = tested on: SK-MEL-2
HCC 2998 = tested on: HCC 2998
HOP-62 = tested on: HOP-62
KM12 = tested on: KM12
SNB-75 = tested on: SNB-75
SN12C = tested on: SN12C
NCI-H226 = tested on: NCI-H226
UACC-62 = tested on: UACC-62
COLO 205 = tested on: COLO 205

Measured: GI50

O=c1oc2cccnc2n1CCCCN1CCN(c2ccccc2)CC1
inactive: HL-60 > 100 µM | Hs-578T > 100 µM | HT-29 > 100 µM | DU-145 > 100 µM | HCT-116 > 100 µM | SNB-19 > 100 µM | NCI-H460 > 100 µM | IGROV-1 > 100 µM | SK-OV-3 > 100 µM | CCRF-CEM > 100 µM | A549 > 100 µM | SW-620 > 100 µM | NCI-H522 > 100 µM | NCI-H23 > 100 µM | SK-MEL-5 > 100 µM | UO-31 > 100 µM | SF-268 > 100 µM | T47D > 100 µM | EKVX > 100 µM | Malme-3M 89.1 µM | CAKI-1 > 100 µM | MDA-MB-435 > 100 µM | OVCAR-8 > 100 µM | OVCAR-5 > 100 µM | MDA-N > 100 µM | PC-3 > 100 µM | OVCAR-4 > 100 µM | K562 > 100 µM | MOLT-4 > 100 µM | SR > 100 µM | OVCAR-3 > 100 µM | MCF7 > 100 µM | NCI/ADR-RES > 100 µM | U-251 > 100 µM | LOX IMVI > 100 µM | UACC-257 > 100 µM | MDA-MB-231 > 100 µM | HOP-92 > 100 µM | M14 > 100 µM | RXF 393 > 100 µM | SF-539 > 100 µM | TK-10 > 100 µM | 786-0 > 100 µM | A498 > 100 µM | SF-295 > 100 µM | RPMI-8226 > 100 µM | SK-MEL-28 > 100 µM | ACHN > 100 µM | SK-MEL-2 > 100 µM | HCC 2998 > 100 µM | HOP-62 > 100 µM
> 100 µM: HCT-15

CCOC(=O)NC(Nc1ncn(C(NC(=O)OCC)(C(F)(F)F)C(F)(F)F)n1)(C(F)(F)F)C(F)(F)F
inactive: HL-60 > 100 µM | Hs-578T > 100 µM | HT-29 > 100 µM | DU-145 > 100 µM | HCT-116 > 100 µM | SNB-19 > 100 µM | NCI-H460 > 100 µM | KM12 > 100 µM | IGROV-1 > 100 µM | SK-OV-3 > 100 µM | CCRF-CEM > 100 µM | A549 > 100 µM | SW-620 > 100 µM | NCI-H23 > 100 µM | SK-MEL-5 > 100 µM | UO-31 12.2 µM | SF-268 > 100 µM | SNB-75 > 100 µM | T47D 49 µM | EKVX > 100 µM | Malme-3M > 100 µM | CAKI-1 > 100 µM | MDA-MB-435 > 100 µM | OVCAR-8 > 100 µM | OVCAR-5 > 100 µM | MDA-N > 100 µM | PC-3 > 100 µM | OVCAR-4 > 100 µM | SN12C > 100 µM | K562 > 100 µM | MOLT-4 > 100 µM | SR > 100 µM | OVCAR-3 > 100 µM | MCF7 > 100 µM | NCI/ADR-RES > 100 µM | U-251 > 100 µM | LOX IMVI > 100 µM | UACC-257 > 100 µM | MDA-MB-231 > 100 µM | NCI-H226 > 100 µM | UACC-62 > 100 µM | HOP-92 > 100 µM | M14 > 100 µM | RXF 393 > 100 µM | SF-539 > 100 µM | TK-10 > 100 µM | 786-0 > 100 µM | A498 > 100 µM | SF-295 > 100 µM | COLO 205 > 100 µM | RPMI-8226 > 100 µM | SK-MEL-28 > 100 µM | ACHN > 100 µM | HCC 2998 29.9 µM | HOP-62 > 100 µM
> 100 µM: HCT-15

Source: ChEMBL document CHEMBL1201862, “PubChem BioAssay data set” (2004)
